Measured values from the METLIN SMRT retention time set (Domingo-Almenara et al. 2019).

Test: gradient 5% acetonitrile 3 min, to 50% in 2 min, to 85% in 15 min, held 3 min, 100 µL/min
Details: column: Zorbax Extend-C18 2.1 x 50 mm; eluents: water / acetonitrile, 0.1% formic acid
In short: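 Data were gathered over 3 months by HPLC coupled to a quadrupole time-of-flight mass spectrometer, operated in positive and negative ionization mode. Mixtures of ~100 pure standards ran on a Zorbax Extend-C18 column (2.1 × 50 mm, 1.8 μm) at 100 μL/min, with water and acetonitrile each containing 0.1% formic acid and dead and dwell volumes of 40 μL and 900 μL. Retention time was read from adduct peaks picked by computer and checked manually.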

COc1cccc(CNC(=O)CN2CCN(Cc3ccc(C)cc3)C(=O)C2=O)c1
RP-LC retention time: 715 s

CCn1cc(S(=O)(=O)N2CCC(C3CCN(C(=O)NC)CC3)C2)cn1 (stereo not drawn)
RP-LC retention time: 622 s

Cn1ncc(NC(=O)c2cccc(Cl)c2)c(N2CCOCC2)c1=O
RP-LC retention time: 777 s

COc1ccccc1-c1noc(Cn2ncn3nc(-c4ccc(F)cc4)cc3c2=O)n1
RP-LC retention time: 996 s

CC(Oc1ccccc1F)C(=O)Nc1nc(-c2ccc(S(=O)(=O)N3CCOCC3)cc2)cs1 (stereo not drawn)
RP-LC retention time: 1010 s

CCOc1ccc(-n2cc(-c3nc(-c4ccccn4)no3)c3ccccc3c2=O)cc1
RP-LC retention time: 599 s

CCCn1c(CCNC(=O)c2ccc(C)c(C)c2)nc2cccnc21
RP-LC retention time: 705 s

CSc1cccc(NC(=O)C2CCN(S(=O)(=O)c3cn(C)cn3)CC2)c1
RP-LC retention time: 736 s

CCOc1ncccc1C(=O)Nc1cccc(-c2csc3nc(C)cc(=O)n23)c1
RP-LC retention time: 774 s

Cc1ccc(CN2CCc3nc(N4CCN(c5ccccc5F)CC4)ncc3C2)s1
RP-LC retention time: 799 s

CN(CCCNC(=O)c1ccc2c(c1)NC(=O)C1CCCCN21)Cc1ccccc1 (stereo not drawn)
RP-LC retention time: 617 s

Cc1cc(NC(=O)Cn2c(=O)cc(-c3nc(C(C)C)no3)c3ccccc32)ccc1F
RP-LC retention time: 959 s

CCn1cc(C(=O)N[C@@H](Cc2ccccc2)C(=O)O)c(=O)c2cc3c(cc21)OCO3
RP-LC retention time: 728 s

Cc1cc(C)n(-c2ccnc(N3CCC(C(=O)NCc4cccnc4)CC3)n2)n1
RP-LC retention time: 612 s

CC1=C(c2ccc(F)cc2)S(=O)(=O)N=C1N1CCC(NC(=O)NC(C)C)CC1
RP-LC retention time: 861 s

CCOc1ccc(NC(=O)Cn2c(=O)n(-c3ccc(C)cc3)c(=O)c3c2cc(C)n3C)cc1
RP-LC retention time: 824 s

CCOc1ccccc1NC(=O)N1CC(N(CC)C2CCOCC2)C1
RP-LC retention time: 561 s

CCc1nnc(-c2ccc(S(=O)(=O)N3CCCC(C)C3)o2)o1 (stereo not drawn)
RP-LC retention time: 906 s

CCCN1CCN(C(=O)C2CCN(S(=O)(=O)c3ccc4c(c3)sc(=O)n4CC)CC2)CC1
RP-LC retention time: 623 s

O=C(CN1C(=O)CC(c2cccs2)=Nc2ccccc21)NC1CCCCC1
RP-LC retention time: 884 s

CCCn1ccc2sc(C)c(C(=O)NC3CCN(Cc4ccccc4)CC3)c2c1=O
RP-LC retention time: 625 s

Cc1nn(C)c(C)c1S(=O)(=O)NCCc1noc(-c2cccnc2)n1
RP-LC retention time: 643 s

CC1=NS(=O)(=O)N(C)C=C1C(=O)OCc1noc(-c2ccccc2F)n1
RP-LC retention time: 914 s

CCOC(=O)C1CCN(C(=O)C2CCN(c3cncnc3N(C)C)CC2)CC1
RP-LC retention time: 603 s

CCN1C(=O)c2ccccc2Oc2ccc(C(=O)N3CCN(c4cc(Cl)ccc4C)CC3)cc21
RP-LC retention time: 1190 s

Oc1cccc(-c2nc3cnccn3c2Nc2ccc(Br)cc2)c1
RP-LC retention time: 1020 s

Cc1n[nH]c(C)c1S(=O)(=O)N1CCC(c2nnc(-c3ccco3)s2)CC1
RP-LC retention time: 660 s

O=C(NC1CC1)c1nnn(-c2ccccc2)c1-c1cccnc1
RP-LC retention time: 691 s

O=S(=O)(Nc1ccccc1F)c1ccc(-c2nnc(C3CCC3)o2)o1
RP-LC retention time: 856 s

CSc1ccc(CN2CCN(c3cnn4c(C5CC5)nnc4c3)CC2)cc1
RP-LC retention time: 603 s

CCC(=O)N1CCC(Oc2nccnc2N2CCOCC2)C1 (stereo not drawn)
RP-LC retention time: 646 s

OC(CN1CCN(c2ccccn2)CC1)c1ccc2c(c1)OCO2 (stereo not drawn)
RP-LC retention time: 539 s

CCCNC(=O)C1CCN(c2ccc(SCC(=O)Nc3cc(OC)ccc3OC)nn2)CC1
RP-LC retention time: 662 s

O=C(c1ccc(F)c(Cl)c1)N1CCCC(c2nnc(-c3ccccc3)o2)C1 (stereo not drawn)
RP-LC retention time: 913 s

Fc1cccc(CSc2ccc(-c3ccc4c(c3)OCO4)nn2)c1
RP-LC retention time: 1020 s

CCN1C(=O)C(CC(=O)NC(C)c2ccccc2)Sc2ncccc21 (stereo not drawn)
RP-LC retention time: 751 s

CN(C)c1ccc(CNS(=O)(=O)c2cc(-c3nc(C(C)(C)C)cs3)cs2)cc1
RP-LC retention time: 1100 s

Cc1ccn2c(NC(=O)COc3ccccc3)c(-c3ccccc3)nc2c1
RP-LC retention time: 683 s

CCOC(=O)C1CCCN(C(=O)C2CCN(c3cc(N4CCCCC4)ncn3)CC2)C1 (stereo not drawn)
RP-LC retention time: 666 s

COCCN1C(=O)CCc2cc(NS(=O)(=O)c3ccc(C)c(Cl)c3)ccc21
RP-LC retention time: 851 s

COc1ccccc1N1CCN(C(=O)C2CCN(C(=O)C3Sc4ccccc4NC3=O)CC2)CC1 (stereo not drawn)
RP-LC retention time: 717 s

CCc1ccc(-c2csc(Nc3ccc(S(=O)(=O)Nc4cc(OC)nc(OC)n4)cc3)n2)cc1
RP-LC retention time: 1150 s

O=C(Cn1ccnc1)N1CCCC(OCc2nc(C3CC3)no2)C1 (stereo not drawn)
RP-LC retention time: 580 s

Cc1ccc(CN2CCn3nnc(CCC(=O)N4CCCC4)c3C2)s1
RP-LC retention time: 651 s

CC1CCN(CC2CCN(S(=O)(=O)c3ccccc3Cl)CC2)CC1
RP-LC retention time: 664 s

COCC(=O)N(CC(=O)N1CCc2sccc2C1COc1cccc(OC)c1)C1CC1 (stereo not drawn)
RP-LC retention time: 800 s

O=S(=O)(Nc1ccc2c(c1)OCCO2)c1ccc(-c2nnc(C3CCC3)o2)o1
RP-LC retention time: 842 s

C=Cc1ccc(CN2N=C(C(=O)N3CCOCC3)S(=O)(=O)c3ccc(C)cc32)cc1
RP-LC retention time: 919 s

O=C(c1ccoc1)N1CCOc2ccc(N3CCOCC3)cc2C1
RP-LC retention time: 678 s

CCc1ccccc1S(=O)(=O)N1CCc2c(c(-c3nc(C4CC4)no3)nn2C)C1
RP-LC retention time: 1010 s

COC(=O)C1=C(C)N(C(C)C)C(=O)C1(NC(=O)CCc1ccccc1)C(F)(F)F (stereo not drawn)
RP-LC retention time: 936 s

Cc1csc(C(=O)Nc2ccc(N3CCCN(C(=O)C4CC4)CC3)cc2)c1
RP-LC retention time: 735 s

CCSc1nnc(NC(=O)Cc2cc(-c3ccc4c(c3)CC(C)O4)on2)s1 (stereo not drawn)
RP-LC retention time: 895 s

O=C(CC1CCCC1)N1CCN(c2nc(CN3CCCCC3)cs2)CC1
RP-LC retention time: 642 s

O=C1NC(C(=O)NCc2ccccn2)Cn2cccc21 (stereo not drawn)
RP-LC retention time: 541 s

O=C(CCC1CCCC1)NCCC1CCN(C(=O)Nc2cc(F)cc(F)c2)CC1
RP-LC retention time: 971 s

COc1cccc(CNC(=O)C2(C)CCCN(S(=O)(=O)c3ccc(Cl)cc3)C2)c1 (stereo not drawn)
RP-LC retention time: 932 s

O=C(NCCCn1c(-c2ccncc2)nc2cccnc21)Nc1ccc(F)c(Cl)c1
RP-LC retention time: 693 s

CCc1noc(NC(C)=O)c1-c1ccc(C)c(S(=O)(=O)Nc2ccc(Cl)cc2C)c1
RP-LC retention time: 888 s

Cc1ccc2c(c1)N(S(C)(=O)=O)CCC(C(=O)Nc1ccc(F)c(F)c1)O2 (stereo not drawn)
RP-LC retention time: 960 s

CCn1c(=O)c2ccn(CC(=O)Nc3ccc(Cl)cc3)c2n(CC)c1=O
RP-LC retention time: 747 s

Cc1cc2c(=O)n(CC(=O)Nc3ccc(Cl)cc3)c3cccnc3n2n1
RP-LC retention time: 745 s

COC(=O)CSC1=C(C#N)C(c2ccsc2)CC(=O)N1 (stereo not drawn)
RP-LC retention time: 707 s

Cc1cccc(OCc2nc(-c3ccc(NS(=O)(=O)c4cccs4)cc3)no2)c1
RP-LC retention time: 1090 s

COCCNc1nc(-c2cccc(Cl)c2)nnc1C
RP-LC retention time: 657 s

CC1CCCCN1CCNC(=O)CN1CCc2ccccc2C1C(=O)N1CCCCC1 (stereo not drawn)
RP-LC retention time: 617 s

CCS(=O)(=O)N1CC(F)(F)C[C@H]1c1nc(-c2cccnc2)no1
RP-LC retention time: 743 s

Cc1nc2c(sc3nc(-c4ccccc4)ccc32)c(=O)n1CC(=O)NCc1ccc(F)cc1
RP-LC retention time: 994 s

COc1ccc(OC)c(NC(=O)C2CCN(C(=O)C3Sc4ccccc4NC3=O)CC2)c1 (stereo not drawn)
RP-LC retention time: 754 s

CCOc1ccccc1NC(=O)N1CCN(CCNC(=O)c2ccc3c(c2)OCO3)CC1
RP-LC retention time: 581 s

O=C(C1CCN(c2ccc(Sc3cccc(F)c3)nn2)CC1)N1CCN(c2ccccn2)CC1
RP-LC retention time: 626 s

O=C(COc1ccc(Cl)cc1Cl)NC1CC(=O)N(C2CC2)C1 (stereo not drawn)
RP-LC retention time: 701 s

COC(=O)CNC(=O)N1CCC(N2CCN(Cc3ccc(C)cc3)C(=O)C2=O)CC1
RP-LC retention time: 644 s

CC(C)OC(=O)CCC/C=C\C[C@@H]1[C@@H](/C=C/[C@@H](O)COc2cccc(C(F)(F)F)c2)[C@H](O)C[C@@H]1O
RP-LC retention time: 955 s

CCOCCCNC(=O)CCC(=O)N1CC2CCCN2c2ccccc21 (stereo not drawn)
RP-LC retention time: 729 s

Cc1ccc(C(=O)NCc2ccc3c(c2)ncn3C)c(C)c1
RP-LC retention time: 611 s

Cn1nc(C(=O)N2CCCC2)c2c1CCN(C(=O)CCC(=O)NCCN1CCCCC1)C2
RP-LC retention time: 574 s

CCc1ccccc1NC(=O)Nc1cccc(-c2ccc(N3CCOCC3)nn2)c1
RP-LC retention time: 717 s

Nc1cc(C2CCN(C(=O)c3nccc4ccccc34)CC2)no1
RP-LC retention time: 647 s

O=C(Nc1cccc(F)c1)C1CCN(S(=O)(=O)c2cc(C(=O)N3CCCC3)cs2)CC1
RP-LC retention time: 829 s

COc1cc(OC)cc(-c2nc(-c3cn(-c4ccc(C)cc4)nn3)no2)c1
RP-LC retention time: 1140 s

Cn1cc(-c2ccncc2)cc1C(=O)NCc1cccc(F)c1
RP-LC retention time: 630 s

CC(C)CCN1C(=O)C2CCCN2C(=O)c2ccccc21 (stereo not drawn)
RP-LC retention time: 797 s

Cc1noc2nc(C)n(CC(=O)NCCc3ccccc3)c(=O)c12
RP-LC retention time: 752 s

COc1ccccc1CNC(=O)C1CCN(c2nnc3c(Cl)cccn23)CC1
RP-LC retention time: 700 s

Cc1ccc(-n2c(-c3ccc(Cl)cc3)cn3c4c(=O)n(C)c(=O)n(C)c4nc23)c(C)c1
RP-LC retention time: 1110 s

COc1ccccc1N1CCN(S(=O)(=O)c2ccc3c(c2)CCCC(=O)N3)CC1
RP-LC retention time: 809 s

COc1ccc(N2CCN(C(=O)Cn3ccc4c(SCc5ccccc5)nccc43)CC2)cc1
RP-LC retention time: 743 s
